Patent US20150105252A1, “SUBSTITUTED PYRAZOLES AS HERBICIDES” (E I DU PONT DE NEMOURS AND COMPANY, priority 2013, published 2015)

Assays:
[1] = tested on: barnyardgrass; experiment: Test A preemergence; type: in vivo, Echinochloa crus-galli; conditions: preemergence
Outline: (§1)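 Both timings tested concurrently in loam/sand soil: preemergence by directed soil spray, postemergence on plants of 2–10 cm at the one- to two-leaf stage. Greenhouse holding period was approximately 10 days before visual injury assessment (0–100, 0 = no effect).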

[2] = tested on: crabgrass, large; experiment: Test A preemergence; type: in vivo, Digitaria sanguinalis; conditions: preemergence; for Crabgrass, Large plant response rating (0 to 100 scale): visual injury approx. 10 days after treatment
Outline: as §1

[3] = tested on: foxtail, giant; experiment: Test A preemergence; type: in vivo, Setaria faberii; conditions: preemergence; for Foxtail, Giant plant response rating (0 to 100 scale): visual injury approx. 10 days after treatment
Outline: as §1

[4] = tested on: morningglory; experiment: Test A preemergence; type: in vivo, Ipomoea spp.; conditions: preemergence; for Morningglory plant response rating (0 to 100 scale): visual injury approx. 10 days after treatment
Outline: as §1

[5] = tested on: pigweed; experiment: Test A preemergence; type: in vivo, Amaranthus retroflexus; conditions: preemergence; for Pigweed plant response rating (0 to 100 scale): visual injury approx. 10 days after treatment
Outline: as §1

[6] = tested on: velvetleaf; experiment: Test A preemergence; type: in vivo, Abutilon theophrasti; conditions: preemergence; for Velvetleaf plant response rating (0 to 100 scale): visual injury approx. 10 days after treatment
Outline: as §1

[7] = tested on: wheat; experiment: Test A preemergence; type: in vivo, Triticum aestivum; conditions: preemergence; for Wheat plant response rating (0 to 100 scale): visual injury approx. 10 days after treatment
Outline: as §1

[8] = tested on: corn; experiment: Test A preemergence; type: in vivo, Zea mays; conditions: preemergence; for Corn plant response rating (0 to 100 scale): visual injury approx. 10 days after treatment
Outline: as §1

[9] = tested on: barnyardgrass; experiment: Test A postemergence; type: in vivo, Echinochloa crus-galli
Outline: as §1

[10] = tested on: crabgrass, large; experiment: Test A postemergence; type: in vivo, Digitaria sanguinalis
Outline: as §1

[11] = tested on: foxtail, giant; experiment: Test A postemergence; type: in vivo, Setaria faberii
Outline: as §1

[12] = tested on: morningglory; experiment: Test A postemergence; type: in vivo, Ipomoea spp.
Outline: as §1

[13] = tested on: pigweed; experiment: Test A postemergence; type: in vivo, Amaranthus retroflexus
Outline: as §1

[14] = tested on: velvetleaf; experiment: Test A postemergence; type: in vivo, Abutilon theophrasti
Outline: as §1

[15] = tested on: wheat; experiment: Test A postemergence; type: in vivo, Triticum aestivum
Outline: as §1

[16] = tested on: corn; experiment: Test A postemergence; type: in vivo, Zea mays
Outline: as §1

[17] = tested on: rice; experiment: Test B flood; type: in vivo, Oryza sativa; conditions: 250 g ai/ha, visual rating on 0 to 100 scale (0 no effect, 100 complete control), 13 to 15 days
Outline: (§2)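 2-leaf plants; pots flooded 3 cm over soil; compound added to paddy water, depth kept constant. Greenhouse 13–15 d. Visual rating vs controls, 0–100 scale (100 = complete control); dash = no result.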

[18] = tested on: sedge, umbrella; experiment: Test B flood; type: in vivo, Cyperus difformis; conditions: 250 g ai/ha, visual rating on 0 to 100 scale (0 no effect, 100 complete control), 13 to 15 days
Outline: as §2

[19] = tested on: ducksalad; experiment: Test B flood; type: in vivo, Heteranthera limosa; conditions: 250 g ai/ha, visual rating on 0 to 100 scale (0 no effect, 100 complete control), 13 to 15 days
Outline: as §2

[20] = tested on: barnyardgrass; experiment: Test B flood; type: in vivo, Echinochloa crus-galli; conditions: 250 g ai/ha, visual rating on 0 to 100 scale (0 no effect, 100 complete control), 13 to 15 days
Outline: as §2

[21] = 125 g ai/ha, visual injury, 0 to 100 scale, approx. 10 days
[22] = 500 g ai/ha, visual injury after approx. 10 days, 0 to 100 scale (0 no effect, 100 complete control)
[23] = Postemergence, 500 g ai/ha, 0 to 100 scale (0 no effect, 100 complete control)
[24] = postemergence, 125 g ai/ha, about 10 days, visual rating on 0 to 100 scale (0 no effect, 100 complete control)
[25] = Postemergence, 500 g ai/ha, visual rating after approx. 10 days, 0 to 100 scale (0 no effect, 100 complete control)

SMILES	Barnyardgrass plant response rating [1, 21]	Barnyardgrass plant response rating [1, 22]	Crabgrass, Large plant response rating [2, 22]	Foxtail, Giant plant response rating [3, 22]	Morningglory plant response rating [4, 22]	Pigweed plant response rating [5, 22]	Velvetleaf plant response rating [6, 22]	Wheat plant response rating [7, 22]	Corn plant response rating [8, 22]	Barnyardgrass plant response rating [9, 24]	Crabgrass, Large plant response rating [10, 24]	Foxtail, Giant plant response rating [11, 24]	Morningglory plant response rating [12, 24]	Pigweed plant response rating [13, 24]	Velvetleaf plant response rating [14, 24]	Wheat plant response rating [15, 24]	Corn plant response rating [16, 24]	Plant response rating, Rice [17]	Plant response rating, Sedge, Umbrella [18]	Plant response rating, Ducksalad [19]	further results
O=C(NCC(F)(F)F)c1cc(Br)n(Cc2cccc(C(F)(F)F)c2)n1 [Compound 161]	0	0	70	20	0	80	0	0	0	10	20	10	30	40	30	0	0	0	0	0	Crabgrass, Large plant response rating (0 to 100 scale) ([2]; 125 g ai/ha): 10; Foxtail, Giant plant response rating (0 to 100 scale) ([3]; 125 g ai/ha): 0; Morningglory plant response rating (0 to 100 scale) ([4]; 125 g ai/ha): 0; Pigweed plant response rating (0 to 100 scale) ([5]; 125 g ai/ha): 10; Velvetleaf plant response rating (0 to 100 scale) ([6]; 125 g ai/ha): 0; Wheat plant response rating (0 to 100 scale) ([7]; 125 g ai/ha): 0; Corn plant response rating (0 to 100 scale) ([8]; 125 g ai/ha): 0; Barnyardgrass plant response rating [9, 23]: 10; Crabgrass, Large plant response rating [10, 23]: 30; Foxtail, Giant plant response rating [11, 23]: 20; Morningglory plant response rating [12, 23]: 50; Pigweed plant response rating [13, 23]: 70; Velvetleaf plant response rating [14, 23]: 50; Wheat plant response rating [15, 23]: 0; Corn plant response rating [16, 23]: 10; Plant response rating, Barnyardgrass [20]: 0
CCc1cc(C(=O)NCC#N)nn1Cc1ccnc(C(F)(F)F)c1 [Compound 147]	0	30	100	80	70	100	30	0	0	10	10	10	30	60	30	0	0	0	0	0	Crabgrass, Large plant response rating (0 to 100 scale) ([2]; 125 g ai/ha): 50; Foxtail, Giant plant response rating (0 to 100 scale) ([3]; 125 g ai/ha): 10; Morningglory plant response rating (0 to 100 scale) ([4]; 125 g ai/ha): 20; Pigweed plant response rating (0 to 100 scale) ([5]; 125 g ai/ha): 90; Velvetleaf plant response rating (0 to 100 scale) ([6]; 125 g ai/ha): 0; Wheat plant response rating (0 to 100 scale) ([7]; 125 g ai/ha): 0; Corn plant response rating (0 to 100 scale) ([8]; 125 g ai/ha): 0; Barnyardgrass plant response rating [9, 23]: 30; Crabgrass, Large plant response rating [10, 23]: 40; Foxtail, Giant plant response rating [11, 23]: 30; Morningglory plant response rating [12, 23]: 70; Pigweed plant response rating [13, 23]: 90; Velvetleaf plant response rating [14, 23]: 50; Wheat plant response rating [15, 23]: 0; Corn plant response rating [16, 23]: 10; Plant response rating, Barnyardgrass [20]: 0
CCc1cc(C(=O)NCC(F)(F)C(F)(F)F)nn1Cc1ccnc(C(F)(F)F)c1 [Compound 102]	20	90	100	100	50	90	100	40	60	20	50	50	40	50	10	0	30	0	50	50	Crabgrass, Large plant response rating [2, 21]: 60; Foxtail, Giant plant response rating [3, 21]: 90; Morningglory plant response rating [4, 21]: 10; Pigweed plant response rating [5, 21]: 90; Velvetleaf plant response rating [6, 21]: 0; Wheat plant response rating [7, 21]: 0; Corn plant response rating [8, 21]: 10; Barnyardgrass plant response rating [9, 25]: 60; Crabgrass, Large plant response rating [10, 25]: 80; Foxtail, Giant plant response rating [11, 25]: 90; Morningglory plant response rating [12, 25]: 60; Pigweed plant response rating [13, 25]: 80; Velvetleaf plant response rating [14, 25]: 50; Wheat plant response rating [15, 25]: 30; Corn plant response rating [16, 25]: 50; Plant response rating, Barnyardgrass [20]: 0
